Measured values taken from ChEMBL document CHEMBL2203174, “SAR Development of Lysine-Based Irreversible Inhibitors of Transglutaminase 2 for Huntington's Disease” (ACS Med Chem Lett, 2012).

What was measured:
[1] = target: T1, Protein-glutamine gamma-glutamyltransferase (Homo sapiens, UniProt P21980); assay: Irreversible inhibition of transglutaminase 2
T1 sequence (P21980 whole entry): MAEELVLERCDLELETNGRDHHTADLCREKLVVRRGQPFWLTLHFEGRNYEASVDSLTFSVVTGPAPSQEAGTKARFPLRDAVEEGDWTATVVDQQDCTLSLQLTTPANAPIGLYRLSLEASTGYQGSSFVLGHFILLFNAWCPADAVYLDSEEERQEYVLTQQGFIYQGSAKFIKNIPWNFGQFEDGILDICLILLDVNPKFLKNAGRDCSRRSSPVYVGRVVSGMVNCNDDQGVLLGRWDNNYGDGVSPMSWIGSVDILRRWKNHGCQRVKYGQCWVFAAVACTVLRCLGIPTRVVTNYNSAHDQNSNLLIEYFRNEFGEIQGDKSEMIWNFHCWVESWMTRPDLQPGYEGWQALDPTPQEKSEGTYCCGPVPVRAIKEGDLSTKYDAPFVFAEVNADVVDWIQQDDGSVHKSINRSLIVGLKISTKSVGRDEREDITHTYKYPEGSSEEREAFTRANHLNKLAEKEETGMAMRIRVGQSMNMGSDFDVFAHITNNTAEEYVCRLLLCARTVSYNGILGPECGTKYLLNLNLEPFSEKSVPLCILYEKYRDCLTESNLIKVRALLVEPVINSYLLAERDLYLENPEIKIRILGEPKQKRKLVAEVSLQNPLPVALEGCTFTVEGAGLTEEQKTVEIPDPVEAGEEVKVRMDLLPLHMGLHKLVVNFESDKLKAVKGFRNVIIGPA

[2] = Ratio of IC50 for mouse transglutaminase 2 to IC50 for human transglutaminase 2
[3] = target: T2, Protein-glutamine gamma-glutamyltransferase E (Homo sapiens, UniProt Q08188); assay: Inhibition of transglutaminase 3
T2 sequence (Q08188 whole entry): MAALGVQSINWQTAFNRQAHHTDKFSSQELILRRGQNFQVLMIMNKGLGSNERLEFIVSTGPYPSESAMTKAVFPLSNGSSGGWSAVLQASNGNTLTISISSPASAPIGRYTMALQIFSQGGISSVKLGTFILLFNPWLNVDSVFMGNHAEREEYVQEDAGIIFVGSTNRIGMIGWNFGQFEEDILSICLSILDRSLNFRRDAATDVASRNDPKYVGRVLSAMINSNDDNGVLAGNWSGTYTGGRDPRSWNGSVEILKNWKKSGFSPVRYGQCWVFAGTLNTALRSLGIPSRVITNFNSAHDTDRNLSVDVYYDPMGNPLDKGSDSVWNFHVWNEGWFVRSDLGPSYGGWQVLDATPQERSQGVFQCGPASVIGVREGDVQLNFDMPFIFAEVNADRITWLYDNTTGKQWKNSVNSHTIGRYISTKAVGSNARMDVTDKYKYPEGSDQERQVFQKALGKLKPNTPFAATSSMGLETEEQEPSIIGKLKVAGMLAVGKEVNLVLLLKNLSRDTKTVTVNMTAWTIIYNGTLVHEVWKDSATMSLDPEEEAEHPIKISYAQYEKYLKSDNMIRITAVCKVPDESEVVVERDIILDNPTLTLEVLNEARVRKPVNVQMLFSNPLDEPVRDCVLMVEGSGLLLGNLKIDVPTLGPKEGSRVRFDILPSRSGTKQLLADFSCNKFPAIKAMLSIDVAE

[4] = target: T3, Coagulation factor XIII A chain (Homo sapiens, UniProt P00488); assay: Inhibition of coagulation factor 13a
T3 sequence (P00488 whole entry): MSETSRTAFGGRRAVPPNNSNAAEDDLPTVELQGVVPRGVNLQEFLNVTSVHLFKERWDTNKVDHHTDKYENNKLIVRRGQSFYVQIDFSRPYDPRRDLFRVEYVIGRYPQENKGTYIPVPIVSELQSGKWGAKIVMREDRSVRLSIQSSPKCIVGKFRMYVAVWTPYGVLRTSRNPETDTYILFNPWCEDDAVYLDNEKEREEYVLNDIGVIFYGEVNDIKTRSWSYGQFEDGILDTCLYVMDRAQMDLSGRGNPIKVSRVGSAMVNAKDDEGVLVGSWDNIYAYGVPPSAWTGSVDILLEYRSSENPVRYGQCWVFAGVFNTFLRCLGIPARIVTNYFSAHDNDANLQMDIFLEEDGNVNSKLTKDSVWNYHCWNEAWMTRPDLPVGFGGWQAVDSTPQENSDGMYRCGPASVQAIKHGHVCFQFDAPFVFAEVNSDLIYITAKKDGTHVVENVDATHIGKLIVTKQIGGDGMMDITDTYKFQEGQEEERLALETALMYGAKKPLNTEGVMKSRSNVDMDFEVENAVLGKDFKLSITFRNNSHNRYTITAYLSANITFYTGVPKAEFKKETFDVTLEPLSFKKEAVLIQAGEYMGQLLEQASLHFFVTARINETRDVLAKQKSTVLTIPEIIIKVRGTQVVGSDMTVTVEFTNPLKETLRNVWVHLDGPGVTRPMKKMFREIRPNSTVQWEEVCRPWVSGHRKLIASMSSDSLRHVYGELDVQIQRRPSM

[5] = target: T4, Protein-glutamine gamma-glutamyltransferase K (Homo sapiens, UniProt P22735); assay: Inhibition of transglutaminase 1
T4 sequence (P22735 whole entry): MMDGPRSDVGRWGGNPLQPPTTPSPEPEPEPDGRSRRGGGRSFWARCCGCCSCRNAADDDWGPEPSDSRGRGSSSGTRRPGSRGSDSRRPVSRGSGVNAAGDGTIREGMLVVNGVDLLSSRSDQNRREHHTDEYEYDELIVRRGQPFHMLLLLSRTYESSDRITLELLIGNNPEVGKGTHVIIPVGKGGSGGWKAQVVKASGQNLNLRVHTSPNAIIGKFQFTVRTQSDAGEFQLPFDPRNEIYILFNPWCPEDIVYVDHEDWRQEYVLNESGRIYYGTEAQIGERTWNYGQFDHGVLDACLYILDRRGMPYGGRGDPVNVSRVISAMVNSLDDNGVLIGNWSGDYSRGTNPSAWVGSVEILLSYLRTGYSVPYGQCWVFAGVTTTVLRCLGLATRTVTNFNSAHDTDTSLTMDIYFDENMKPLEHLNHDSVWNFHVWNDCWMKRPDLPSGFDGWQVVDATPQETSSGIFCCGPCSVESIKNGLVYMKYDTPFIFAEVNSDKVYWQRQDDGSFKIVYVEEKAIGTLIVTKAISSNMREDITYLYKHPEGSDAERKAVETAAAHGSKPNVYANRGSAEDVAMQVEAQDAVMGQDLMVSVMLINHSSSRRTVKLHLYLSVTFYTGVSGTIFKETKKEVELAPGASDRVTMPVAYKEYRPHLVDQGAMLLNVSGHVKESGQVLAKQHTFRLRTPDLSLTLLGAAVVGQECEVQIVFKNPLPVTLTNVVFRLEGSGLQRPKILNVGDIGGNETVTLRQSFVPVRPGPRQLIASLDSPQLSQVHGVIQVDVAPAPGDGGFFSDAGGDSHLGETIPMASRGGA

Row | Compound | IC50 [1] | other results
1 | C=CC(=O)NCCCC[C@H](NC(=O)OCc1ccc(CCCC)cc1)C(=O)O | 5900 nM | 
2 | C=CC(=O)NCCCC[C@H](NC(=O)OCc1ccc2ccccc2c1)C(=O)O | 9100 nM | 
3 | C=CC(=O)NCCCC[C@H](NC(C)=O)C(=O)N1CCN(c2cccc(C)n2)CC1 | 190 nM | 
4 | C=CC(=O)NCCCC[C@H](NC(=O)OCc1ccc(C(F)(F)F)cc1)C(=O)O | 33000 nM | 
5 | C=CC(=O)NCCCC[C@H](NC(=O)OCc1ccccc1C(F)(F)F)C(=O)O | 3500 nM | 
6 | C=CC(=O)NCCCC[C@H](NC(=O)OCc1ccccc1)C(=O)N1CCN(c2ncccc2C(F)(F)F)CC1 | 160 nM | Ratio IC50 [2]: 2
7 | C=CC(=O)NCCCC[C@H](NC(=O)c1ccccc1)C(=O)N1CCN(c2cccc(C)n2)CC1 | 190 nM | 
8 | C=CC(=O)NCCCC[C@H](NC(=O)OCc1ccc(C)cc1)C(=O)O | 14000 nM | 
9 | C=CC(=O)NCCCC[C@H](NC(=O)OCc1cccc2ccccc12)C(=O)O | 14000 nM | 
10 | C=CC(=O)NCCCC[C@H](NC(=O)OCc1ccccc1)C(=O)N1CCCCC1 | 1200 nM | 
11 | C=CC(=O)NCCCC[C@H](NC(=O)c1ccc2ccccc2c1)C(=O)N1CCN(c2cccc(C)n2)CC1 | 1600 nM | 
12 | C=CC(=O)NCCCC[C@H](NC(=O)OCc1ccccc1)C(=O)N1CCN(c2ccccn2)CC1 | 260 nM | Ratio IC50 [2]: 2
13 | C=CC(=O)NCCCC[C@H](NC(=O)OCc1ccccc1)C(=O)N1CCN(c2ccc3ccccc3c2)CC1 | 230 nM | Ratio IC50 [2]: 2
14 | C=CC(=O)NCCC1C[C@@H](C(=O)N2CCN(c3cccc(C)n3)CC2)N(C(=O)OC(C)(C)C)C1 (mixture of isomers) | 1800 nM | 
15 | C=CC(=O)NCCCC[C@H](NC(=O)OCc1c(F)cccc1F)C(=O)O | 10000 nM | 
16 | C=CC(=O)Nc1ccc(C[C@H](NC(=O)OCc2ccccc2)C(=O)O)cc1 | > 80000 nM | 
17 | C=CC(=O)NCCCC[C@H](NC(=O)OC(C)(C)C)C(=O)N1CCN(c2cccc(C)n2)CC1 | 850 nM | 
18 | C=CC(=O)NCCCC[C@H](NC(=O)OCc1ccccc1)C(=O)N1CCN(C)CC1 | 610 nM | Ratio IC50 [2]: 2
19 | C=CC(=O)NCCCCCNC(=O)OCc1ccccc1 | 7600 nM | 
20 | C=CC(=O)NCCCC[C@H](NC(=O)OCc1ccccc1)C(=O)N1CCN(c2cc(Cl)ccc2OC)CC1 | 78 nM | Ratio IC50 [2]: 2
21 | C=CC(=O)N1CCC(C[C@H](NC(=O)OC(C)(C)C)C(=O)O)CC1 | > 80000 nM | 

Row | Compound | IC50 [1] | other results
22 | C=CC(=O)NCCCC[C@H](NC(=O)OCc1ccccc1)C(=O)N1Cc2ccccc2C1 | 240 nM | 
23 | C=CC(=O)NCCCC[C@H](NC(=O)OCc1ccccc1)C(=O)N1CCOCC1 | 730 nM | 
24 | C=CC(=O)NCCCC[C@H](NC(=O)OCc1ccccc1)C(=O)N1CCN(c2cccc(C)n2)CC1 | 55 nM | Ratio IC50 [2]: 2
25 | C=CC(=O)NCCCC[C@H](NC(=O)OCc1ccccc1)C(=O)N1CCCC1 | 580 nM | 
26 | C=CC(=O)NCCCC[C@H](NC(=O)OCc1ccccc1)C(=O)N1CCN(c2ncccc2C)CC1 | 170 nM | Ratio IC50 [2]: 2
27 | C=CC(=O)NCCCC[C@H](NC(=O)OCc1cccc(C(F)(F)F)c1)C(=O)O | 10000 nM | 
28 | C=CC(=O)NCCCC[C@@H](CO)NC(=O)OCc1ccccc1 | 5400 nM | 
29 | C=CC(=O)NCCCC[C@H](NC(=O)OCc1ccccc1)C(=O)N1CCC(F)(F)CC1 | 660 nM | 
30 | C=CC(=O)NCCCC[C@H](NC(=O)OC)C(=O)O | > 80000 nM | 
31 | C=CC(=O)NCCCC[C@H](NC(=O)OCc1ccccc1)C(=O)N1CCC1 | 2500 nM | 
32 | C=CC(=O)NCCCC[C@H](NC(=O)OCc1ccc([N+](=O)[O-])cc1)C(=O)O | 62000 nM | 
33 | C=CC(=O)NCCCC[C@H](NC(=O)OCc1ccccc1)C(=O)N1CCN(c2ccc(C(F)(F)F)cn2)CC1 | 110 nM | Ratio IC50 [2]: 2
34 | C=CC(=O)NCCCC[C@H](NC(=O)OCc1ccccc1)C(=O)O | 2700 nM | 
35 | C=CC(=O)NCCCC[C@H](NC(=O)OCc1ccc(C(C)(C)C)cc1)C(=O)O | 21000 nM | 
36 | C=CC(=O)NCCCC[C@H](NC(=O)OCc1ccccc1)C(=O)N(C)C | 1100 nM | 
37 | C=CC(=O)NCCCC[C@H](NC(=O)OCc1ccccc1Cl)C(=O)O | 1900 nM | 
38 | C=CC(=O)NCCCC[C@H](NC(=O)OCc1ccc(F)cc1)C(=O)O | 7900 nM | 
39 | C=CC(=O)NCCCC[C@H](NC(=O)OCc1ccccc1)C(=O)N(CC)CC | 1400 nM | 
40 | C=CC(=O)NCCCC[C@H](NC(=O)OCc1ccccc1)C(=O)N1CCCCCC1 | 590 nM | 
41 | C=CC(=O)NCCCC[C@H](NC(=O)OCc1ccccc1)C(=O)N1CCC(c2ccccc2)CC1 | 54 nM | IC50 [3]: > 80000 nM; IC50 [4]: 21000 nM; IC50 [5]: 9300 nM
